Test results: patent US5693617A, “Inhibitors of the 26s proteolytic complex and the 20s proteasome contained therein” (ProScript, Inc., priority 1995, dated 1997)
“Also recorded” adds a separate entry of the source. Non-standard residues stand in square brackets, D forms with d. Residues, ends and D or L forms follow the SMILES beside them. Nle = CCCC[C@H](N)C(=O)O

Legend:
rat soleus muscle = assay: Denervation-induced protein degradation in incubated rat soleus muscle; conditions: 100 μM MG 101; FIG. 4
Procedure: One leg of each of seven rats was denervated by section of the sciatic nerve 3 days prior to sacrifice. […] After incubation, the tissue was homogenized, and ^3 -phenylalanine incorporation into protein and free tyrosine of the medium was measured.

RMA cells = assay: Class I MHC assembly in RMA cells; assay type: cell-based
Procedure: Class I MHC molecules are peptide-binding receptors composed of a heavy and a light chain. Peptide binding to these molecules is essential for the stable association of the heavy and light chains. […] To test the effect of MG 101 on class I assembly, RMA cells were incubated with and without MG 101 (100 μM) for 1 hr at 37° C., electroporated with and without MG 101 (100 μM) as described in Example 7, and incubated with and without MG 101 (100 μM) for 3 hrs at 37° C. Over the last 30 min of incubation the cells were pulse labeled with ^35 S-methionine and were then washed and detergent lysates were prepared. Lysates were divided and class I binding peptides were added to one group. Class I molecules were immunoprecipitated with a mAb, Y3 (Townsend et al., Cell 62:285-295 (1990)), that only reacts with assembled class I heterodimers and analyzed as previously described ([…] et al., Nature 363:552-554 (1993)).

rat diaphragm muscle = assay: T3 induced protein degradation in incubated rat diaphragm; conditions: 40 μM MG 101; FIG. 3
Procedure: T3 was administered to hypophysectomized rats for 7 days. […] After incubation, the tissue was homogenized, and ^3 -phenylalanine incorporation into protein and free tyrosine of the medium was measured.

CCCC[C@@H](C=O)NC(=O)[C@H](CC(C)C)NC(=O)[C@H](CC(C)C)NC(C)=O [MG 101, Ac-Leu-Leu-Nle-H] (Ac-Leu-Leu-[Nle]-aldehyde)
Protein degradation induced by denervation in incubated rat soleus muscle (rat soleus muscle): inhibits the accelerated proteolysis in muscle; also recorded: inhibition of protein degradation
Assembly of class I heterodimers (RMA cells; 100 μM MG 101, FIG. 7): markedly reduced
Class I complex formation from introduced antigenic peptide (RMA cells; 100 μM MG 101, FIG. 7 lane 4): fails to inhibit complex formation from introduced antigenic peptide
Appearance of MHC-I molecules on the cell surface (RMA cells; FIG. 7): specifically blocks the movement of functional MHC-I complexes to the cell surface; also recorded: blocks the appearance of MHC-I molecules on the cell surface
Level of the individual class I subunits (RMA cells; control experiments): does not affect the level of the individual subunits
Protein degradation induced by T3 in incubated rat diaphragm (rat diaphragm muscle): inhibits the accelerated proteolysis in muscle; also recorded: inhibition of protein degradation
